Assay results taken from publication PMC6271530, “Design and Optimisation of Bioactive Cyclic Peptides: Generation of a Down-Regulator of TNF Secretion” (Molecules, 2014).
Entries after “also recorded” stand apart in the source; their conditions may differ.

How the values were obtained:
[1] = test system: CTB-stimulated J774A.1 cells; type: cell-based, murine
[2] = test system: cytokine activated T-cells (Tck) co-cultured with monocytes; test: IL-6 secretion in the cognate assay; type: cell-based, human; settings: cognate model; 10 and 1 μg/mL peptide, relative to corresponding vehicle controls; formulated with cyclodextrin in the absence of transcutol
Method: (§1) A methodology described by Brennan et al. was employed. Peripheral blood lymphocytes (>95%) are enriched by Centrifugal Elutriation from plateletphoresis blood cones. CD45RO^+ Tcells (>98% purity) isolated by negative selection (Miltenyi, Bisley, UK) are re-suspended to a density of 1 × 10^6 cells/mL in RPMI 1640 containing 10% heat-inactivated AB^+ Human Serum. Cytokines are added to the cells at the following concentrations, hIL-2 @25 ng/mL, hIL-6 @100 ng/mL and hTNFα @25 ng/mL, all purchased from Peprotech UK (London, UK). The cells are incubated at 37 °C, 5% CO2 for 8 d after which they are pelleted twice at 1500 rpm for 5 min, counted and then used in a cognate experiment.
(§2) A methodology described by Brennan et al. is employed as follows. Elutriation-enriched (>95%) autologous monocytes are cultured at 1 × 10^6 cells/mL (100 microlitres) in RPMI 1640 containing 5% heat-inactivated FCS, in a 96-well, round-bottomed culture plate. After adjusting the cell number, cytokine activated T-cells (Tck) are added to the monocytes at a 5:1 ratio, the peptides are then added into the appropriate wells, with a final volume of 200 μL/well. Cells are co-cultured at 37 °C, 5% CO2 for 18 h after which the supernatants are removed and assayed for cytokine production by ELISA.

[3] = test system: cytokine activated T-cells (Tck) co-cultured with monocytes; test: IL-10 levels in the cognate model; type: cell-based, human
Method: as §1, §2

[4] = test system: LPS-stimulated J774A.1 cells; test: TNF secretion by LPS-stimulated J774A.1 cells; type: cell-based, murine; settings: for Change in level of secretion of TNF into the supernatant: LPS-stimulated J774A.1 cells, overnight exposure to cyclic peptide, TNF by sandwich ELISA, very high levels of TNF generated
[5] = test system: cytokine activated T-cells (Tck) co-cultured with monocytes; test: TNF secretion in T cell/monocyte co-culture (cognate assay); type: cell-based, human
Method: as §1, §2

[6] = test system: LPS-stimulated J774A.1 cells; test: IL-6 secretion by LPS-stimulated J774A.1 cells; type: cell-based, murine; settings: different concentrations, formulated with cyclodextrin in the absence of transcutol
[7] = test system: lymphocytes; test: TNF secretion by lymphocytes; type: cell-based; settings: evidence to be presented separately
[8] = test system: cytokine activated T-cells (Tck) co-cultured with monocytes; test: IL-1 levels in the cognate model; type: cell-based, human
Method: as §1, §2

[9] = test system: cells of the cytokine secretion experiments (replicates of each group); test: MTT viability assay; type: cell-based; settings: MTT 4 h at 37 °C, read at 620 nm
Method: After removal of the supernatants 100 μL of RPMI 1640 is added to each well of the plate. 10 μL of MTT dye (stock 5 mg/mL) is added to each well and incubated for 4 h at 37 °C 5% CO2, the MTT crystals are dissolved with SDS after which the plates are read at 620 nm.

[10] = Light scattering / homogeneity of the peptide preparation in aqueous medium; type: physicochemical; settings: peptide dissolved in HFIP or transcutol in the presence of β-hydroxypropyl cyclodextrin, then aqueous medium; all levels of cyclodextrin employed
Excerpt: In order to avoid problems with aggregation, which, it was feared, may affect the long-term stability of the product, a number of methodologies were employed to disperse the peptide prior to introduction into aqueous medium. Dissolution in HFIP, followed by drying down and addition of water worked reasonably well, as did dissolving in transcutol at high concentration, then adding to water. […] Detailed methodology is given in the Experimental section.

cyclo(-DF-R-Nle-S-DF-R-Nle-S-) [Lex 2.3]
Change in level of secretion of TNF into the supernatant [1]: insufficient

cyclo(-DF-S-Nle-R-DF-S-Nle-R-) [Lex 2.4]
Change in level of secretion of TNF into the supernatant [1]: insufficient

cyclo(-DF-R-Σ-S-DF-R-Σ-S-) [Lex 2.1]
Change in level of secretion of TNF into the supernatant [1]: efficacy in terms of down-regulating the secretion of TNF

cyclo(DF-S-LC10-R-DF-S-LC10-R) [Lex 2.6]
Effect on IL-6 secretion [2]: reductions in IL-6 secretion
Effect on levels of IL-10 [3]: No effect
Dependence of TNF down-regulating activity on cyclodextrin:peptide ratio ([4]; LPS-stimulated J774A.1 cells overnight, formulated with beta hydroxypropyl cyclodextrin at different weight ratios, down to 1.25 (molar ratio 1.3)): independent of the ratio of peptide to cyclodextrin
Change in level of secretion of TNF into the supernatant [4]: most efficacious structure tested; also recorded: inhibits secretion of TNF
Effect on TNF secretion of cells in the cognate assay ([5]; 10 µg/mL, formulated with cyclodextrin in the presence of transcutol (panel a), 18 h co-culture, ELISA): inhibitory activity is seen clearly
Inhibition of TNF secretion elicited by modified T-cell phenotype ([5]; summary statement): inhibits secretion of TNF
Effect on IL-6 secretion [6]: Clear dose-related inhibition of IL-6 secretion
Effect on TNF secretion by lymphocytes [7]: no effect on secretion by lymphocytes
Effect on levels of IL-1 [8]: No effect
Cell metabolic activity (MTT test) [9]: no reduction in cell metabolic activity
Light scattering of the preparation (homogeneity) [10]: significant reduction in light scattering
Change in level of secretion of TNF into the supernatant [1]: inhibits secretion of TNF

cyclo(-DF-S-Σ-R-DF-S-Σ-R-) [Lex 2.2]
Change in level of secretion of TNF into the supernatant [1]: efficacy in terms of down-regulating the secretion of TNF; also recorded: more efficacious

cyclo(DF-R-LC10-S-DF-R-LC10-S) [Lex 2.5]
Change in level of secretion of TNF into the supernatant [4]: strongly dose-related stimulatory activity
